How the values were obtained:
Escherichia coli [1] = assay: Antibacterial activity against Escherichia coli ATCC 25922 after 24 hrs by microdilution method; format: functional
Staphylococcus aureus [2] = assay: Antibacterial activity against Staphylococcus aureus ATCC 25923 after 24 hrs by microdilution method; format: functional
Staphylococcus aureus [3] = assay: Antibiofilm activity against Staphylococcus aureus ATCC 25923 after 24 hrs by crystal violet staining based assay; format: functional
Pseudomonas aeruginosa [4] = assay: Antibacterial activity against Pseudomonas aeruginosa ATCC 15442 after 24 hrs by microdilution method; format: functional
Staphylococcus aureus [5] = assay: Antibacterial activity against Staphylococcus aureus ATCC 6538 after 24 hrs by microdilution method; format: functional
[6] = Inhibition of Staphylococcus aureus ATCC 25923 sortase A by FRET assay
Staphylococcus aureus [7] = assay: Antibiofilm activity against Staphylococcus aureus ATCC 6538 at 100 ug/ml after 24 hrs by crystal violet staining based assay; format: functional
HS27 = assay: Cytotoxicity against human Hs27 cells assessed as cell viability at 0.1 to 1 uM after 72 hrs by SRB assay; format: cell-based; conditions: hs27, 72 h, dose 0.1-1 µM
Pseudomonas aeruginosa [8] = assay: Antibiofilm activity against Pseudomonas aeruginosa ATCC 15442 after 24 hrs by crystal violet staining based assay; format: functional
Escherichia coli [9] = assay: Antibiofilm activity against Escherichia coli ATCC 25922 at 100 ug/ml after 24 hrs by crystal violet staining based assay; format: functional
Escherichia coli [10] = assay: Antibiofilm activity against Escherichia coli ATCC 25922 after 24 hrs by crystal violet staining based assay; format: functional
Staphylococcus aureus [11] = assay: Antibiofilm activity against Staphylococcus aureus ATCC 25923 at 100 ug/ml after 24 hrs by crystal violet staining based assay; format: functional
Staphylococcus aureus [12] = assay: Antibiofilm activity against Staphylococcus aureus ATCC 6538 after 24 hrs by crystal violet staining based assay; format: functional
Pseudomonas aeruginosa [13] = assay: Antibiofilm activity against Pseudomonas aeruginosa ATCC 15442 at 100 ug/ml after 24 hrs by crystal violet staining based assay; format: functional

| MIC (Escherichia coli [1]) [µg/mL] | MIC (Staphylococcus aureus [2]) [µg/mL] | MIC (Pseudomonas aeruginosa [4]) [µg/mL] | MIC (Staphylococcus aureus [5]) [µg/mL] | IC50 [6] [µM] | Compound | MBIC50 (Staphylococcus aureus [3]) [µM] | inhibition at 100 µg/mL (Staphylococcus aureus [7]) [%] | Activity (HS27) | MBIC50 (Pseudomonas aeruginosa [8]) [µM] | inhibition at 100 µg/mL (Escherichia coli [9]) [%] | MBIC50 (Escherichia coli [10]) [µM] | inhibition at 100 µg/mL (Staphylococcus aureus [11]) [%] | MBIC50 (Staphylococcus aureus [12]) [µM] | inhibition at 100 µg/mL (Pseudomonas aeruginosa [13]) [%] |
| --- | --- | --- | --- | --- | --- | --- | --- | --- | --- | --- | --- | --- | --- | --- |
| > 100 | > 100 | > 100 | > 100 | 10.4 | Cn1cc(C(=O)c2nc(-c3cn(C)c4ccc(F)cc34)no2)c2cc(F)ccc21 | 0.7 | < 15 | Non-Toxic | 49.7 | < 15 | – | – | – | – |
| > 100 | > 100 | > 100 | > 100 | – | Cn1cc(C(=O)c2nc(-c3cn(C)c4ccc(Cl)cc34)no2)c2cc(Br)ccc21 | 27.7 | < 15 | – | 53.9 | < 15 | – | – | – | – |
| > 100 | > 100 | > 100 | > 100 | – | COc1ccc2c(c1)c(C(=O)c1nc(-c3cn(C)c4ccc(Br)cc34)no1)cn2C | 41 | < 15 | – | – | < 15 | – | – | – | < 15 |
| > 100 | > 100 | > 100 | > 100 | – | COc1ccc2c(c1)c(C(=O)c1nc(-c3cn(C)c4ccc(F)cc34)no1)cn2C | 39.6 | < 15 | – | 11.6 | < 15 | – | – | – | – |
| > 100 | > 100 | > 100 | > 100 | 2.2 | Cn1cc(C(=O)c2nc(-c3cn(C)c4ccc(Br)cc34)no2)c2cc(F)ccc21 | 9.7 | < 15 | Non-Toxic | – | < 15 | – | – | – | < 15 |
| > 100 | > 100 | > 100 | > 100 | – | Cn1cc(C(=O)c2nc(-c3cn(C)c4ccc(F)cc34)no2)c2cc(Br)ccc21 | 29.6 | < 15 | – | – | – | 45.7 | – | – | < 15 |
| > 100 | > 100 | > 100 | > 100 | – | COc1ccc2c(c1)c(-c1noc(C(=O)c3cn(C)c4ccc(F)cc34)n1)cn2C | 14.8 | < 15 | – | 52.1 | < 15 | – | – | – | – |

Second part, the molecule before the results:

| Compound | MIC (Escherichia coli [1]) [µg/mL] | MIC (Staphylococcus aureus [2]) [µg/mL] | MIC (Pseudomonas aeruginosa [4]) [µg/mL] | MIC (Staphylococcus aureus [5]) [µg/mL] | IC50 [6] [µM] | MBIC50 (Staphylococcus aureus [3]) [µM] | inhibition at 100 µg/mL (Staphylococcus aureus [7]) [%] | Activity (HS27) | MBIC50 (Pseudomonas aeruginosa [8]) [µM] | inhibition at 100 µg/mL (Escherichia coli [9]) [%] | MBIC50 (Escherichia coli [10]) [µM] | inhibition at 100 µg/mL (Staphylococcus aureus [11]) [%] | MBIC50 (Staphylococcus aureus [12]) [µM] | inhibition at 100 µg/mL (Pseudomonas aeruginosa [13]) [%] |
| --- | --- | --- | --- | --- | --- | --- | --- | --- | --- | --- | --- | --- | --- | --- |
| COc1ccc2c(c1)c(-c1noc(C(=O)c3cn(C)c4ccc(Br)cc34)n1)cn2C | > 100 | > 100 | > 100 | > 100 | – | 19.1 | < 15 | – | 28.1 | < 15 | – | – | – | – |
| Cn1cc(C(=O)c2nc(-c3cn(C)c4ccccc34)no2)c2cc(Br)ccc21 | > 100 | > 100 | > 100 | > 100 | – | 39.5 | < 15 | – | 39.3 | – | 39.3 | – | – | – |
| Cn1cc(C(=O)c2nc(-c3cn(C)c4ccc(Br)cc34)no2)c2ccccc21 | > 100 | > 100 | > 100 | > 100 | – | – | < 15 | – | 78.6 | < 15 | – | < 15 | – | – |
| Cn1cc(C(=O)c2nc(-c3cn(C)c4ccccc34)no2)c2ccccc21 | > 100 | > 100 | > 100 | > 100 | – | 14 | – | – | 36.7 | – | 72.1 | – | 53.6 | – |
| COc1ccc2c(c1)c(C(=O)c1nc(-c3cn(C)c4ccc(OC)cc34)no1)cn2C | > 100 | > 100 | > 100 | > 100 | 2.2 | 2.2 | < 15 | Non-Toxic | 74.7 | < 15 | – | – | – | – |
| COc1ccc2c(c1)c(C(=O)c1nc(-c3cn(C)c4ccccc34)no1)cn2C | > 100 | > 100 | > 100 | > 100 | – | 33.1 | < 15 | – | 30 | – | 55.4 | – | – | – |
| COc1ccc2c(c1)c(-c1noc(C(=O)c3cn(C)c4ccccc34)n1)cn2C | > 100 | > 100 | > 100 | > 100 | – | – | < 15 | – | 47.4 | < 15 | – | < 15 | – | – |
| Cn1cc(C(=O)c2nc(-c3cn(C)c4ccc(F)cc34)no2)c2ccccc21 | > 100 | > 100 | > 100 | > 100 | – | 30.4 | < 15 | – | 24 | < 15 | – | – | – | – |
| Cn1cc(C(=O)c2nc(-c3cn(C)c4ccc(Cl)cc34)no2)c2ccccc21 | > 100 | > 100 | > 100 | > 100 | – | 47.6 | < 15 | – | 53.5 | – | 59.6 | – | – | – |
| COc1ccc2c(c1)c(C(=O)c1nc(-c3cn(C)c4ccc(Cl)cc34)no1)cn2C | > 100 | > 100 | > 100 | > 100 | – | – | < 15 | – | – | < 15 | – | < 15 | – | < 15 |
